What was measured:
mTOR = molecular target: T1, mTOR (Homo sapiens, UniProt P42345); assay: In vitro mTOR assay (Lanthascreen); format: biochemical; conditions: average if run more than once
T1 construct: purchased Invitrogen (Carlsbad, Calif.)
Method in brief: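 mTOR activity measured by TR-FRET as Thr46 phosphorylation of GFP-4E-BP1, detected with Tb-labelled anti-phospho-4E-BP1 [T46] antibody after EDTA stop. Final 50 ng/mL mTOR, 400 nM GFP-4E-BP1, 7 μM ATP in HEPES pH 7.5 with 10 mM MnCl2; 1 h, room temperature. 10-point 1:3 compound series.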

[1] = tested on: phosphorylation of Akt at Serine 473; assay: pAkt AlphaScreen (U87 cell); format: cell-based; conditions: Homo sapiens, U-87 MG; U87 MG cells, pAkt Ser473; average
Protocol: pAkt Alphascreen (U87 Cell)
The pAkt AlphaScreen® assay (PerkinElmer, Waltham, Mass.) determines whether there is phosphorylation of Akt at Serine 473 by recruitment of a phosphospecific antibody. This assay was performed using U87 MG cells. The U87 growth media consists of MEM (Gibco, Carlsbad, Calif.) supplemented with 10% FBS (Gibco,), 1× Non-Essential Amino Acids (Gibco,) and 1× Penicillin/Streptomycin/Glutamine (Gibco). The cells were maintained weekly using 0.05% Trypsin (Gibco) and replated in 150 mm TC-Treated Culture Dishes (Corning, Corning, N.Y.).
The first day of the assay, the adherent cells were trypsinized, media was added to the loose cells and cells were mixed to a homogenous mixture. 0.5 ml of the homogenous mixture was counted on the Beckman Coulter® Vi-CELL™ XR (Fullerton, Calif.). 50 frames of cells were counted and the number of viable cells was determined. The cells were then diluted to 0.25 million cells per ml, and centrifuged at 200 rcf for 5 minutes. The media was removed and the cells were reconstituted in fresh media for plating. The cells were plated at 20 μl per well on the PerkinElmer® FlexDrop PLUS in Low Volume 384 Well White Tissue Culture Plates (Corning) with a final cell density of 5K cells per well. The plates were incubated overnight at 37° Celsius, 5% CO2.
On the second day, the compound plates were prepared, the cells were treated with compound and the pAkt reaction mix was added to the cell lysate. 384 well compound plates were prepared containing 1 μl of compound per well starting at 5 mM and diluted 1:2 across the row, resulting in a 22 well serial dilution. 39 μl of growth media was added to the compound plate in rows 1-22 using the PerkinElmer® FlexDrop PLUS resulting in a DMSO concentration of 2.5%. The cell plates and diluted compound plates were put onto the VELOCITY11™ VPREP™ 384 ST where the compound plate was mixed and 5 μl of serially diluted compound or controls was added to the cell plate. The final concentration of the compounds was 25 μM serially diluted to 11.9 pM in 0.5% DMSO. The cell plates were then incubated with compound for two hours at 37° Celsius, 5% CO2. After two hours, the media in the cell plates was aspirated using the BioTek® ELx405HT plate washer (Winooski, Vt.) removing the majority of media and compound without disturbing the adherent U87 cells. The following assay reagents are components of the SureFire® Akt (Ser 473) Phosphorylation 50K Point Kit (TGR BioSciences, Adelaide, Austalia) and an IgG Detection Kit (PerkinElmer, Waltham, Mass.). 5 μl of 1× Lysis Buffer was added to each well using the PerkinElmer® FlexDrop PLUS. The plates were then incubated at room temperature on a shaker for ten minutes. The AlphaScreen® reaction was prepared under low light conditions (subdued or green light) including p-Akt (Ser 473) Reaction Buffer, Dilution Buffer, Activation Buffer, Acceptor Beads and Donor Beads at a ratio of 40:20:10:1:1 respectively. The AlphaScreen® reaction was added to the cell lysate at 6 μl per well using the PerkinElmer® FlexDrop PLUS. The plates were placed in a humid environment to reduce edge effects and incubated overnight at room temperature with restricted air flow in the dark.
On the final day of the experiment, the plates were read on the PerkinElmer® EnVision™ 2103 Multilable Reader using the standard AlphaScreen® readout. The POC is calculated and the data is analyzed to report the IC50 IP for pAkt at Serine 473.
Activity data for the compounds tested in the PI3K cell based Akt assay is provided in Table 2 under the column heading U87

PI3Kα = molecular target: T2, PI3Kα (Homo sapiens, UniProt P42336); assay: In vitro PI3K AlphaScreen assay; format: biochemical; conditions: average if run more than once
T2 construct: Full length p110 subunits of PI3K α, β and δ, N-terminally labeled with polyHis tag; polyHis (N); made in house; host or cells: Sf9 insect cells (baculovirus)
T2 sequence (P42336 whole entry): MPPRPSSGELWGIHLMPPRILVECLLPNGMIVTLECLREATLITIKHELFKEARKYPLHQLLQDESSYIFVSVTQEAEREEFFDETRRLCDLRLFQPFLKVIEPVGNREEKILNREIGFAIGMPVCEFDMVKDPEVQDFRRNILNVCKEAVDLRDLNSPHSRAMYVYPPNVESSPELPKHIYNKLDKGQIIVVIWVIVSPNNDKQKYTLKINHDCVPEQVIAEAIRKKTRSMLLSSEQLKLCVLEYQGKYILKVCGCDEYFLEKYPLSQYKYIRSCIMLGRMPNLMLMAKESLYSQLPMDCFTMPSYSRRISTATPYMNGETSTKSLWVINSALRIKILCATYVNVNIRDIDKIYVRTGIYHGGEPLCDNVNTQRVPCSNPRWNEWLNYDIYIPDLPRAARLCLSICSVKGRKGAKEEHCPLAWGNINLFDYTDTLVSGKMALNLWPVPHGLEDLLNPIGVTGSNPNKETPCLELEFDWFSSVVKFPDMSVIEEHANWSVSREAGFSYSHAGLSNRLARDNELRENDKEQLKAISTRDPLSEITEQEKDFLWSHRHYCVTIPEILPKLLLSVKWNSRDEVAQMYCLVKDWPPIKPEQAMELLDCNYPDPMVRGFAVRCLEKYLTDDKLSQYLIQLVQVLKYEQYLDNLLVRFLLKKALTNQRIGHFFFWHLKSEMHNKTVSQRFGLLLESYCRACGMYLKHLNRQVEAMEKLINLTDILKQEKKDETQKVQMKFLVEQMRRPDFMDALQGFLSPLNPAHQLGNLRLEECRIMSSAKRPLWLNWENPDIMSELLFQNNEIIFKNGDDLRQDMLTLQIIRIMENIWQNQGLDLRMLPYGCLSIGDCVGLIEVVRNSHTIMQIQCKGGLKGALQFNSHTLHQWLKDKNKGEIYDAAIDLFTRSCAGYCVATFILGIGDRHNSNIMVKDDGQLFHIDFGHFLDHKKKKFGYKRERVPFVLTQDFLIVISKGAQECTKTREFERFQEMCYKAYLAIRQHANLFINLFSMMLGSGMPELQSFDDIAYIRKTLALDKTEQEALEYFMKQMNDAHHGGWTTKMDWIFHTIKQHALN
T2 sequence (P27986 whole entry partner): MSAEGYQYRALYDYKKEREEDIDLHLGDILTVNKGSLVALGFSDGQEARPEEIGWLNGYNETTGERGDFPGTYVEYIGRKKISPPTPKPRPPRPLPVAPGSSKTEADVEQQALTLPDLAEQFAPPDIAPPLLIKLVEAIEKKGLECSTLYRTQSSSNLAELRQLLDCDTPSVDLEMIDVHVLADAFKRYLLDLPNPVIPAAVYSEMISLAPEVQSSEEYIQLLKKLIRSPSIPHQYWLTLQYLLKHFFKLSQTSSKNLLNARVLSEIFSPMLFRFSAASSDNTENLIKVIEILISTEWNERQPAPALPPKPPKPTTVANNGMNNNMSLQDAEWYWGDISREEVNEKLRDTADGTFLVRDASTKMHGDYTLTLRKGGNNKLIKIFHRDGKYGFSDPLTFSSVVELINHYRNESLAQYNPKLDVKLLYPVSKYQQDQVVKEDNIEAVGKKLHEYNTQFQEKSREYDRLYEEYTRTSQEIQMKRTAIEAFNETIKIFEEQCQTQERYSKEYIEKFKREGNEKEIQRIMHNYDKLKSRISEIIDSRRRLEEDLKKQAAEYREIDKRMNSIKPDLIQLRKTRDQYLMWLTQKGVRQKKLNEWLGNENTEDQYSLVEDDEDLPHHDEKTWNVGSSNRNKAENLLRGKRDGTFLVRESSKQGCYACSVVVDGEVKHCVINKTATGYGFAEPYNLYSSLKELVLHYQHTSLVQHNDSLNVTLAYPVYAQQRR

T1 sequence (P42345 1360-2549 limits assumed): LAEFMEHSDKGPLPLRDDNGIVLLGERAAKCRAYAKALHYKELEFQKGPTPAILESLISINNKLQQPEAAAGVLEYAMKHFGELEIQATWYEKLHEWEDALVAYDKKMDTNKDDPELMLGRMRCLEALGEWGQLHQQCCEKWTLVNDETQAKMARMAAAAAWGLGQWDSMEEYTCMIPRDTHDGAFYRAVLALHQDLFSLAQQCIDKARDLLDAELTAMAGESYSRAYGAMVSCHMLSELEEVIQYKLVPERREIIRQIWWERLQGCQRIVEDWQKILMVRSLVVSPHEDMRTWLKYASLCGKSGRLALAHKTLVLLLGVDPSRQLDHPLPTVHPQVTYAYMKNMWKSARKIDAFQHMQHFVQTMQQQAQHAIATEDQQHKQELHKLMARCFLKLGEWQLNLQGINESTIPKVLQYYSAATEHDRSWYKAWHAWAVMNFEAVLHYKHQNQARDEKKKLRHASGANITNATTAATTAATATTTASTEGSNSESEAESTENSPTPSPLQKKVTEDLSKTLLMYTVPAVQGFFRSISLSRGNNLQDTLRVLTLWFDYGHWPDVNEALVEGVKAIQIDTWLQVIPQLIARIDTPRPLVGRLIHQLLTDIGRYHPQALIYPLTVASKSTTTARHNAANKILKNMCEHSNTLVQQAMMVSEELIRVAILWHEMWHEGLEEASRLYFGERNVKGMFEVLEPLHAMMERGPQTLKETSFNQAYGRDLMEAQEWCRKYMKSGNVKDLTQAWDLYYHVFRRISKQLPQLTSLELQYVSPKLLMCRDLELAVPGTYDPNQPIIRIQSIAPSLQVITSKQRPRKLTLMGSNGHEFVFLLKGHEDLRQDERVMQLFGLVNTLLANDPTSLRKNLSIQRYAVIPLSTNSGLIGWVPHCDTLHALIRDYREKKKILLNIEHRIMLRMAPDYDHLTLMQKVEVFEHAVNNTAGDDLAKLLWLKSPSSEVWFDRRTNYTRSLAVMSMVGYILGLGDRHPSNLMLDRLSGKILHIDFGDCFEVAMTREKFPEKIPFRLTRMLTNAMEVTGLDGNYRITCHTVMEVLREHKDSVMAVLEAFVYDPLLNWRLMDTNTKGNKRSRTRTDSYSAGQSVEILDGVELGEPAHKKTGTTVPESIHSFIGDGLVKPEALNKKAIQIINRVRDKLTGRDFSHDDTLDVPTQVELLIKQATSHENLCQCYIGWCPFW

SMILES	IC50 (mTOR) [µM]	IC50 [1] [µM]	Ki (PI3Kα) [µM]
CS(=O)(=O)Nc1cc(-c2ccc3nccc(-c4ccc(C(F)(F)F)nc4)c3c2)cnc1Cl [Example 112, N-(2-chloro-5-(4-(6-(trifluoromethyl)-3-pyridinyl)-6-quinolinyl)-3-pyridinyl)methanesulfonamide]	0.0021	0.0091	0.0021
C[C@@H]1CN(c2ccnc3ccc(-c4cnc(Cl)c(NS(C)(=O)=O)c4)cc23)C[C@@H](C)O1 (racemic) [Example 104, N-(2-chloro-5-(4-(2,6-dimethyl-4-morpholinyl)-6-quinolinyl)-3-pyridinyl)methanesulfonamide]	0.0058	0.0284	0.0083
Cc1ccccc1OC1CCN(c2ccnc3ccc(-c4cnc(Cl)c(NS(C)(=O)=O)c4)cc23)C1 (stereo not drawn) [Example 80, N-(2-chloro-5-(4-(3-(2-methylphenoxy)-1-pyrrolidinyl)-6-quinolinyl)-3-pyridinyl)methanesulfonamide]	0.389	0.704	0.0294
CS(=O)(=O)Nc1cc(-c2ccc3nccc(N4CCC(c5ccccc5)CC4)c3c2)cnc1Cl [Example 82, N-(2-chloro-5-(4-(4-phenyl-1-piperidinyl)-6-quinolinyl)-3-pyridinyl)methanesulfonamide]	0.0167	0.364	0.0052
CN(C)S(=O)(=O)Nc1cc(-c2ccc3nccc(N4CCOCC4)c3c2)cnc1Cl [Example 122, N′-(2-Chloro-5-(4-(4-morpholinyl)-6-quinolinyl)-3-pyridinyl)-N,N-dimethylsulfamide]	0.0182	0.0163	0.0065
CN(C)S(=O)(=O)Nc1cc(-c2ccc3nccc(Cl)c3c2)cnc1Cl [Example 125, N′-(2-chloro-5-(4-chloro-6-quinolinyl)-3-pyridinyl)-N,N-dimethylsulfamide]	0.0077	0.723	0.0033
Cc1cc(-c2ccnc3ccc(-c4cnc(Cl)c(NS(C)(=O)=O)c4)cc23)ccn1 [Example 105, N-(2-chloro-5-(4-(2-methyl-4-pyridinyl)-6-quinolinyl)-3-pyridinyl)methanesulfonamide]	0.0015	0.0085	0.0015
COc1ccc(-n2c(=O)cnc3ccc(-c4cnc(Cl)c(NS(=O)(=O)N(C)C)c4)cc32)cn1 [Example 132, N-(2-chloro-5-(4-(6-methoxypyridin-3-yl)-3-oxo-3,4-dihydroquinoxalin-6-yl)pyridin-3-yl)dimethylaminosulfonamide]	0.0023	0.0408	0.0022
O=S(=O)(Nc1cc(-c2ccc3nccc(N4CCOCC4)c3c2)cnc1Cl)N1CCOCC1 [Example 124, N-(2-chloro-5-(4-morpholinoquinolin-6-yl)pyridin-3-yl)morpholine-4-sulfonamide]	0.0143	0.0399	0.0046
COc1ccc(OC)c(CNc2ccnc3ccc(-c4cnc(Cl)c(NS(C)(=O)=O)c4)cc23)c1 [Example 87, N-(2-chloro-5-(4-((2,5-dimethoxybenzyl)amino)-6-quinolinyl)-3-pyridinyl)methanesulfonamide]	0.295	1.42	0.0332
CS(=O)(=O)Nc1cc(-c2ccc3nccc(-c4ccnc(C(F)(F)F)c4)c3c2)cnc1Cl [Example 111, N-(2-chloro-5-(4-(2-(trifluoromethyl)-4-pyridinyl)-6-quinolinyl)-3-pyridinyl)methanesulfonamide]	0.0028	0.0261	0.003
COCCN(C)S(=O)(=O)Nc1cc(-c2ccc3nccc(N4CCOCC4)c3c2)cnc1Cl [Example 123, N′-(2-Chloro-5-(4-(4-morpholinyl)-6-quinolinyl)-3-pyridinyl)-N-(2-methoxyethyl)-N-methylsulfamide]	0.0169	0.037	0.0054
CC(c1ccccc1)N1CCN(c2ccnc3ccc(-c4cnc(Cl)c(NS(C)(=O)=O)c4)cc23)CC1 (stereo not drawn) [Example 83, N-(2-chloro-5-(4-(4-(1-phenylethyl)-1-piperazinyl)-6-quinolinyl)-3-pyridinyl)methanesulfonamide]	0.0821	0.758	0.0136
CS(=O)(=O)Nc1cc(-c2ccc3nccc(N4CCN(Cc5ccc6c(c5)OCO6)CC4)c3c2)cnc1Cl [Example 84, N-(5-(4-(4-(1,3-benzodioxol-5-ylmethyl)-1-piperazinyl)-6-quinolinyl)-2-chloro-3-pyridinyl)methanesulfonamide]	0.0487	0.289	0.0225
CN(C)S(=O)(=O)Nc1cc(-c2ccc3ncc(=O)n(-c4cccc(C(F)(F)F)c4)c3c2)cnc1Cl [Example 133, N-(2-chloro-5-(3-oxo-4-(3-(trifluoromethyl)phenyl)-3,4-dihydroquinoxalin-6-yl)pyridin-3-yl)dimethylaminosulfonamide]	0.0005	0.0094	0.0023
C[C@@H]1CN(c2ccnc3ccc(-c4cnc(Cl)c(NS(C)(=O)=O)c4)cc23)C[C@@H](C)O1 [Example 110, N-(2-chloro-5-(4-((2R,6R)-2,6-dimethyl-4-morpholinyl)-6-quinolinyl)-3-pyridinyl)methanesulfonamide]	0.0051	0.0141	0.0063
CN(Cc1cccc(F)c1)c1ccnc2ccc(-c3cnc(Cl)c(NS(C)(=O)=O)c3)cc12 [Example 85, N-(2-chloro-5-(4-((3-fluorobenzyl)(methyl)amino)-6-quinolinyl)-3-pyridinyl)methanesulfonamide]	0.0621	1.66	0.0158
COC(C)(C)CNc1ccnc2ccc(-c3cnc(Cl)c(NS(C)(=O)=O)c3)cc12 [Example 79, N-(2-chloro-5-(4-((2-methoxy-2-methylpropyl)amino)-6-quinolinyl)-3-pyridinyl)methanesulfonamide]	0.363	2.83	0.0823
C[C@@H]1CN(c2ccnc3ccc(-c4cnc(Cl)c(NS(=O)(=O)c5ccc(F)cc5)c4)cc23)C[C@H](C)O1 [Example 96, N-(2-chloro-5-(4-((2R,6S)-2,6-dimethyl-4-morpholinyl)-6-quinolinyl)-3-pyridinyl)-4-fluorobenzenesulfonamide]	0.011	0.0375	0.0068
O=S(=O)(Nc1cc(-c2ccc3c(c2)OCCO3)cnc1Cl)c1ccc(F)cc1 [Example 128, N-(2-Chloro-5-(2,3-dihydrobenzo[b][1,4]dioxin-6-yl)pyridin-3-yl)-4-fluorobenzenesulfonamide]	0.0527	20.4	0.0333
CS(=O)(=O)Nc1cc(-c2ccc3nccc(N4Cc5ccc(F)cc5C4)c3c2)cnc1Cl [Example 86, N-(2-chloro-5-(4-(5-fluoro-1,3-dihydro-2H-isoindol-2-yl)-6-quinolinyl)-3-pyridinyl)methanesulfonamide]	0.162	0.667	0.016
CS(=O)(=O)Nc1cc(-c2ccc3ncc(N4CCOCC4)nc3c2)cnc1Cl [Example 92, N-(2-chloro-5-(3-(4-morpholinyl)-6-quinoxalinyl)-3-pyridinyl)methanesulfonamide]	0.0283	0.084	0.0028
